This passage reports Rate and blocking current level results from patent publication US20190241952A1, “TAGGED MULTI-N[…] FOR NUCLEIC ACID SEQUENCING” (Roche Sequencing Solutions, Inc., priority 2016, published 2019).

Data set [1] deals with exonuclease deficient variant of the Pol6 polymerase. In words: Displacement assay of single, double, triple and quadruple nucleotide substrates (Example 3). Type of data set: biochemical. An excerpt: B. Assay protocol: The assay is a displacement assay using an exonuclease deficient variant of the Pol6 polymerase as described in Example 2, wherein polymerase activity is followed by fluorometrically monitoring the change in FRET between the Cy5 and BHQ labels as the polymerase incorporates the substrates in the DNA extension reaction.
Briefly, an assay solution containing the Pol6 polymerase, the 5′-Cy5-labelled displacement DNA template of SEQ ID NO: 124, and the 3′-BHQ-labelled quencher primer of SEQ ID NO: 124 in 75 mM potassium glutamate (“K-Glu”) is prepared in the absence of the substrate or Mg^2+ ion. A substrate solution is prepared containing either the multi-nucleotide compound to be assayed (i.e., “Y-Tag,” “W-Tag,” or “Q-Tag”), the non-tagged dT6P (“Hexa-PO4), or the tagged single nucleotide substrate, dA6P-dT30-C3 (”Full Tag“) of compound (3d). Also included in the substrate solution are the other three nucleotide-hexaphosphate (”dN6P″) substrates required for polymerase synthesis of a strand complementary to the DNA template (i.e., dA6P, dC6P, dG6P). This substrate solution is added to the polymerase solution. Assays are carried out for each of the test substrates at the following initial concentrations: 0.25 μM, 0.5 μM, 1.0 μM, 2.0 μM, 4.0 μM, and 8.0 μM. Additional K-Glu is added to bring the total K-Glu concentration in the mixture up to 300 mM. The polymerase reaction is then initiated by addition of MgCl2. Final concentrations in the assay reaction mixture are: 100 nM Pol6 enzyme, 50 nM Cy5 displacement DNA template, 40 μM each of other dN6P substrates, 300 mM K-Glu, 25 mM HEPES, 0.2 mM EDTA, 0.05% Triton X-100, 5 mM TCEP, 25 μg/mL BSA, 5 mM MgCl2, pH 7.5.

Data set [2] relates to α-HL-Pol6 nanopore-polymerase conjugate. The format is biochemical.

With `Cc1cn([C@H]2C[C@H](O)[C@@H](COP(=O)(O)OP(=O)(O)OP(=O)(O)OP(=O)(O)OP(=O)(O)OP(=O)(O)O)O2)c(=O)[nH]c1=O` [dT6P], the Rate was 0.57 Bases/sec in data set [1] (Initial Conc. Tag 0.25 μM); 2.87 Bases/sec in data set [1] (Initial Conc. Tag 0.5 μM); 3.48 Bases/sec in data set [1] (Initial Conc. Tag 1.0 μM); 3.89 Bases/sec in data set [1] (Initial Conc. Tag 2.0 μM); 4.48 Bases/sec in data set [1] (Initial Conc. Tag 4.0 μM); 4.24 Bases/sec in data set [1] (Initial Conc. Tag 8.0 μM).
As to “(dA6P)2-dT5-(BHEB)-dT14-C3: two dA6P via doubler-linker on tag SEQ ID NO: 109 (DNA ttttttttttttttttttt; two dA6P via doubler linker; BHEB; C3; (5)..(6) bis-hydroxyethylbenzene residue between nucleotide residues 5 and 6; (19)..(19) T-propanol)”, the blocking current level in data set [2] is listed as 0.88+/−0.03.
For the compound “(dC6P)2-dT20-C3: two dC6P via doubler-linker on tag SEQ ID NO: 105 (DNA tttttttttttttttttttt; two dC6P via doubler linker; C3; (20)..(20) T-propanol)”, in data set [2], the blocking current level is recorded as 0.76+/−0.04.
Turning to “(dG6P)2-dT6-(Tmp)6-dT8-C3: two dG6P via doubler-linker on tag SEQ ID NO: 107 (DNA TTTTTTTTTTTTTT; two dG6P via doubler linker; Tmp; C3; (6)..(7) 6 thymidine methylphosphonate residues between nucleotide residues 6 and 7; (14)..(14) T-propanol)”, the blocking current level in data set [2] is listed as 0.38+/−0.08.
As to “(dT6P)2-dT4-(N3CET)3-dT13-C3: two dT6P via doubler-linker on tag SEQ ID NO: 106 (DNA TTTTTTTTTTTTTTTTT; chemistry not fully specified)”, the blocking current level in data set [2] is recorded as 0.62+/−0.05.
